Assay results taken from patent EP0218400A1, “Assay methods for chemotherapeutic agents” (DAMON BIOTECH, INC., priority 1985, dated 1987).

How the values were obtained:
[1] = system: human colon adenocarcinoma (HT-29) cells; assay: In vivo growth of encapsulated HT-29 cells in C57BL/6 mice; conditions: for inhibition at 20 mg/kg: Mus musculus; for No. of cells per capsule / Total No. of tumor cells: 4 days
Experimental: (§1) In the experiments that follow, the drugs and other agents tested were administered to the host animal by injection at the various times called for in the protocol being tested. At various periods after treatment, the mice were killed by cervical dislocation. The peritoneal cavity of each mouse was washed with PBS or medium and floating microcapsules were aspirated using a large bore plastic Pasteur pipette. Microcapsules were transferred to 15 ml tubes and washed 3 to 4 times with PBS to remove host peritoneal cells. The washed microcapsules were aspirated into 1 ml serological pipettes, allowed to sediment, and the volume of packed microcapsules was determined. Microcapsules were then transferred to a glas dounce homogenizer (7 ml volume) and disrupted with 3 strokes of an A-tolerance plumger. Cells suspensions were filtered through nylon mesh to remove the disrupted membranes. The suspensions containing tumor cells were centrifuged and the pellet was resuspended in 0.25 to 0.5 ml of complete medium. After mixing equal volumes of cell suspension and trypan blue, viable cell counts were determined using a hemocytometer.
(§2) The number of tumor cells per 1 ml of packed microcapsules was determined as follows: a = ? where b = total number of tumor cells in the suspension, and c = total volume of microcapsules used for the preparation of this suspension.
(§3) By comparing the number of tumor cells in 1 ml of microcapsules derived from non-treated and drug-treated mice, the percent inhibition of tumor cell growth was calculated: [formula] where ac = number of tumor cells from the non-treated control microcapsules, and ae = number of tumor cells from the drug treated microcapsules.
A second human cancer cell line was also used to further analyze in vivo effects of different drugs on the growth of tumors. Encapsulated human colon adenocarcinoma (HT-29) cells were again transplanted into C57BL/6 mice and various drugs were administered after 3 days either by intravenous or by intraperitoneal injection. Animals were sacrificed after 4 days and number of cells per capsule were counted to calculate inhibition rates for the various treatment procedures. […] In fact, 5-FU is a preferred chemotherapeutic agent for patients with gastrointestinal malignancies.

MOLT-4 lymphoma cells = assay: In vivo inhibition of encapsulated Molt-4 lymphoma growth in C57BL/6 mice; design: species or system human
Experimental: as §1, §2, §3
MOLT-4 lymphoma cells were also used in an in vivo assay. As before, the MOLT-4 cells were encapsulated and transplanted i.p. into C57BL/6 mice. On day 1 following the transplantation of the encapsulated cells, the mice were treated i.v. intravenous (i.v.) with BCNU, adriamycin or cyclophosphamide (CY). This approach allowed the testing of cyclophosphamide (CY) which is inefficient in vitro because it must be metabolized to obtain an active cytotoxic derivative. Ten days after transplantation, the encapsulated cells were retrieved and the tumor cells contained therein were counted. […]

[2] = system: Human T cell lymphoma (MOLT-4) cells; assay: In vitro drug pretreatment of encapsulated cells, then growth in the peritoneal cavity of mice; assay type: in vivo; conditions: for No. of tumor cells per capsule: then 7 days i.p. in C57BL/6 mice
Experimental: The encapsulated tumors are preferably incubated at 37° C in medium for 1 to 2 hours. A 25 percent (v/v) suspension can then be prepared (preferably without bovine serum). The suspension can be inoculated in the peritoneal cavity of the host animal (i.e., with a 16 gauge needle).
as §1, §2, §3
Human T cell lymphoma (MOLT-4) cells were encapsulated according to the procedures described above and incubated in vitro in RPMI I640 medium supplemented with 10 percent fetal calf serum, glutamine and antibiotics for one hour of 37°C. During incubation they were exposed to various concentrations of 1,3-B (2-chloroethyl)-1-nitrosourea (BCNU), 5-fluorouracil (5-FU) and adriamycin. The microcapsules were then washed and implanted into the peritoneal cavity (i.p.) of C57BL/6 mice (Animal Production Area NCI-Frederick Cancer Research Facility) using #18-14 needles. After seven days the mice were sacrificed and their peritoneal cavities were washed with PBS and aspirated to collect the microcapsules in a Pasteur pipette. The microcapsules were washed several times from the host peritoneal cells. The microcapsules from the individual mice were counted by transferring them into wells of a 96 well microplate. Using an inverted microscope, the numbers of microcapsules in each well were counted. Each well was washed out and microcapsules were transferred into the glass homogenizer.
Microcapsules were then disrupted, and the suspension was filtered, centrifugated and reconstituted with PBS. The concentration and total number of cells were counted using a hemocytometer.

human Melanoma LOX cells = assay: In vivo susceptibility of encapsulated LOX melanoma cells in nude mice
Experimental: as §1, §2, §3
In this series of experiments, cells of a fourth human cancer type, Melanoma LOX cells, were used. LOX cells have recently been proposed as the model for experimental treatment at the NCI Development Therapeutics Program. Following i.p. inoculation of the suspension of LOX Melanoma cells into nude mice, various drugs were administered i.v. and survival of the treated mice was determined (Schoemaker et al., Proceeding American Association for Cancer Research, 26, 1302, 1985) (mice transplanted with the non-encapsulated tumor cells were considered tumor-free if they survived during 3 months of observation). In parallel experiments encapsulated LOX Melanoma cells were transferred into nude mice and drugs were inoculated i.v. 1, 5 and 9 days at the dose and schedule utilized by the Dr. Shoemaker's procedure.

LOX Melanoma cells = conditions: i.v.; Adriamycin 6, BCNU 20, CY 100, 5-Fu 60 mg/kg; survival during 3 months of observation; nude mice; cited from earlier work
Original P388 cells = assay: In vivo growth of encapsulated original P388 lymphoma cells in nude mice
Experimental: as §1, §2, §3
Since drug-resistance is one of the most important causes of failure in chemotherapy, it is crucial that a predictive assay be able to distinguish between effective and non-effective drugs for particular tumors. […] One day later the mice received by i.v. administration Adriamycin (6 mg/kg), Vinblastin (1 mg/kg) or Cyclophosphamide (100 mg/kg). Five days after administration some of the mice were sacrificed, the microcapsules were recovered and the numbers of tumor cells inside the capsules were determined. The remaining mice received a second administration and the microcapsules were recovered from the remaining mice 3 days afterwards. The results are shown in Table 7 and correlate well with the known characteristics of P388 cell line and its variant.

[3] = i.p. 3 days after transplantation, 5-Fu 150 mg/kg, CY 250 mg/kg, Adriamycin 20 mg/kg
[4] = i.v. 20 mg/kg 3 days after transplantation
[5] = i.v. on day 1, Adriamycin 10 mg/kg, BCNU 100 mg/kg, CY 200 mg/kg, capsules retrieved ten days after transplantation
[6] = 5 + 3 days after treatment (3 days after second administration), Adriamycin 6, Vinblastin 1, Cyclophosphamide 100 mg/kg i.v.
[7] = 5 days after treatment, i.v. one day after inoculation, Adriamycin 6, Vinblastin 1, Cyclophosphamide 100 mg/kg

COc1cccc2c1C(=O)c1c(O)c3c(c(O)c1C2=O)C[C@@](O)(C(=O)CO)C[C@@H]3O[C@H]1C[C@H](N)[C@H](O)[C@H](C)O1 [Adriamycin]
inhibition at 20 mg/kg ([1]; HT-29, ip): 45% | inhibition at 20 mg/kg ([1]; HT-29, iv): 50% | No. of cells per capsule [1, 3]: 1.1 x 10^4 | Total No. of tumor cells [1, 3]: 5.8 x 10^5 | No. of cells per capsule [1, 4]: 1 x 10^4 | Total No. of tumor cells [1, 4]: 1.2 x 10^6 | inhibition at 10 mg/kg (MOLT-4 lymphoma cells; Mus musculus, MOLT-4, iv, i.v. on day 1, Adriamycin 10 mg/kg, BCNU 100 mg/kg, CY 200 mg/kg, capsules retrieved ten days after transplantation): 91.3% | reduction of the number of viable tumor cells in the capsules (in words) (MOLT-4 lymphoma cells; i.v. on day 1, ten days after transplantation): more effective than BCNU | No. of cells per capsule (MOLT-4 lymphoma cells; [5]): 237 | Total No. of tumor cells (MOLT-4 lymphoma cells; [5]): 8 x 10^4 | No. of tumor cells per capsule ([2]; 2.5 µg/ml in vitro for one hour): 2 x 10^3 | No. of tumor cells per capsule ([2]; 10 µg/ml in vitro for one hour): 10 | inhibition at 2.5 µg/mL ([2]; Mus musculus, MOLT-4, ip): 60% | inhibition at 10 µg/mL ([2]; Mus musculus, MOLT-4, ip): 100% | sensitivity of encapsulated LOX cells to the treatment (in words) (human Melanoma LOX cells; i.v. days 1, 5, 9): most sensitive | No. of viable tumor cells per 1 ml. of capsules (human Melanoma LOX cells; i.v. days 1, 5, 9, Adriamycin 6, BCNU 20, CY 100, 5-Fu 60 mg/kg): 6 x 10^5 | % survived mice transplanted with nonencapsulated tumor cells (LOX Melanoma cells): 33% | % Inhibition (Original P388 cells; [6]): 92% | No. cells/ml (Original P388 cells; [6]): 4 x 10^6 | % Inhibition (Original P388 cells; [7]): 64% | No. cells/ml (Original P388 cells; [7]): 8 x 10^6
